Measurements taken from PubChem BioAssay AID2060905 (Molecular Pharmacology Branch, DTP, NCI, 2025).

Tested on: 282377-053-R-J1-PDC complex spheroid viability
Experiment: Anticancer human tumor 282377-053-R-J1-PDC patient-derived colon adenocarcinoma cell line growth inhibition [RAS]
Conditions: for IC50: curve of first compound; for viability, T/C: stronger effect = lower value
Outline: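 Multi-cell-type spheroids: tumor cells plus HUVEC endothelial cells and mesenchymal stem cells. RAS-pathway inhibitors were combined with targeted agents, each dosed in half-log steps down from clinical Cmax, or from 10 microM when Cmax was unknown.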
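Further: spheroids exposed to agents for seven days before readout.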
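Wherever viability, T/C is given: luminescence viability as percent of DMSO vehicle control wells.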

With `CC1(C)CCC(Nc2ncc(C(F)(F)F)c(-c3c[nH]c4c(P(C)(C)=O)c(C#N)ccc34)n2)CN1` (stereo unspecified) + C=CC(=O)N1CCN(c2nc(OCC3CCCN3C)nc3c(F)c(-c4nc(N)cc(C)c4C(F)(F)F)c(Cl)cc23)C(C)C1 the IC50 (second compound 0.00316 µM) was over 0.3 µM, the IC50 (second compound 0.01 µM) was over 0.3 µM and the IC50 (second compound 0.0316 µM) was over 0.3 µM. The IC50 (second compound 0.1 µM) was over 0.3 µM, the IC50 (second compound 0.316 µM) was over 0.3 µM and the IC50 (second compound 1 µM) was over 0.3 µM. It also gave a viability, T/C (second compound 0.00316 µM, first compound 0.000949 µM) of 114%, a viability, T/C (second compound 0.00316 µM, first compound 0.003 µM) of 120% and a viability, T/C (second compound 0.00316 µM, first compound 0.00949 µM) of 79.9%. For the same compound, the viability, T/C (second compound 0.00316 µM, first compound 0.03 µM) was 51.3%, the viability, T/C (second compound 0.00316 µM, first compound 0.0949 µM) was 61.1% and the viability, T/C (second compound 0.00316 µM, first compound 0.3 µM) was 55.6%. The viability, T/C (second compound 0.01 µM, first compound 0.000949 µM) was 123%, the viability, T/C (second compound 0.01 µM, first compound 0.003 µM) was 88.7% and the viability, T/C (second compound 0.01 µM, first compound 0.00949 µM) was 85.1%. It also gave a viability, T/C (second compound 0.01 µM, first compound 0.03 µM) of 64.5%, a viability, T/C (second compound 0.01 µM, first compound 0.0949 µM) of 58.8% and a viability, T/C (second compound 0.01 µM, first compound 0.3 µM) of 56.1%. It also gave a viability, T/C (second compound 0.0316 µM, first compound 0.000949 µM) of 91.7%, a viability, T/C (second compound 0.0316 µM, first compound 0.003 µM) of 90.8% and a viability, T/C (second compound 0.0316 µM, first compound 0.00949 µM) of 72.3%. It also gave a viability, T/C (second compound 0.0316 µM, first compound 0.03 µM) of 59.6%, a viability, T/C (second compound 0.0316 µM, first compound 0.0949 µM) of 64.8% and a viability, T/C (second compound 0.0316 µM, first compound 0.3 µM) of 56.1%. It also gave a viability, T/C (second compound 0.1 µM, first compound 0.000949 µM) of 105%, a viability, T/C (second compound 0.1 µM, first compound 0.003 µM) of 101% and a viability, T/C (second compound 0.1 µM, first compound 0.00949 µM) of 91.3%. For the same compound, the viability, T/C (second compound 0.1 µM, first compound 0.03 µM) was 66.3%, the viability, T/C (second compound 0.1 µM, first compound 0.0949 µM) was 73.1% and the viability, T/C (second compound 0.1 µM, first compound 0.3 µM) was 61.8%. It also gave a viability, T/C (second compound 0.316 µM, first compound 0.000949 µM) of 90.2%, a viability, T/C (second compound 0.316 µM, first compound 0.003 µM) of 102% and a viability, T/C (second compound 0.316 µM, first compound 0.00949 µM) of 87.9%. The viability, T/C (second compound 0.316 µM, first compound 0.03 µM) was 65.1%, the viability, T/C (second compound 0.316 µM, first compound 0.0949 µM) was 58.5% and the viability, T/C (second compound 0.316 µM, first compound 0.3 µM) was 67.1%. It also gave a viability, T/C (second compound 1 µM, first compound 0.000949 µM) of 92.9%, a viability, T/C (second compound 1 µM, first compound 0.003 µM) of 112% and a viability, T/C (second compound 1 µM, first compound 0.00949 µM) of 86.8%. For the same compound, the viability, T/C (second compound 1 µM, first compound 0.03 µM) was 61.6%, the viability, T/C (second compound 1 µM, first compound 0.0949 µM) was 67% and the viability, T/C (second compound 1 µM, first compound 0.3 µM) was 71.8%.
Work on `CC(=O)OC12COC1CC(O)C1(C)C(=O)C(O)C3=C(C)C(OC(=O)C(O)C(NC(=O)OC(C)(C)C)c4ccccc4)CC(O)(C(OC(=O)c4ccccc4)C21)C3(C)C` (stereo unspecified) + CCn1c(-c2cc(N3CCN(C)CC3)cnc2C(C)OC)c2c3cc(ccc31)-c1csc(n1)CC(NC(=O)C1CC1C)C(=O)N1CCCC(N1)C(=O)OCC(C)(C)C2 yielded an IC50 (second compound 0.000949 µM) of under 0.0316 µM, an IC50 (second compound 0.003 µM) of under 0.0316 µM and an IC50 (second compound 0.00949 µM) of under 0.0316 µM. It also gave an IC50 (second compound 0.03 µM) of under 0.0316 µM, an IC50 (second compound 0.0949 µM) of under 0.0316 µM and an IC50 (second compound 0.3 µM) of under 0.0316 µM. It also gave a viability, T/C (second compound 0.000949 µM, first compound 0.0316 µM) of 41.2%, a viability, T/C (second compound 0.000949 µM, first compound 0.1 µM) of 48.6% and a viability, T/C (second compound 0.000949 µM, first compound 0.316 µM) of 44.2%. For the same compound, the viability, T/C (second compound 0.000949 µM, first compound 1 µM) was 52%, the viability, T/C (second compound 0.000949 µM, first compound 3.16 µM) was 61% and the viability, T/C (second compound 0.000949 µM, first compound 10 µM) was 97.3%. The viability, T/C (second compound 0.003 µM, first compound 0.0316 µM) was 50.1%, the viability, T/C (second compound 0.003 µM, first compound 0.1 µM) was 38.4% and the viability, T/C (second compound 0.003 µM, first compound 0.316 µM) was 45.5%. It also gave a viability, T/C (second compound 0.003 µM, first compound 1 µM) of 55.2%, a viability, T/C (second compound 0.003 µM, first compound 3.16 µM) of 52.2% and a viability, T/C (second compound 0.003 µM, first compound 10 µM) of 83.2%. The viability, T/C (second compound 0.00949 µM, first compound 0.0316 µM) was 50.1%, the viability, T/C (second compound 0.00949 µM, first compound 0.1 µM) was 42.6% and the viability, T/C (second compound 0.00949 µM, first compound 0.316 µM) was 52.5%. For the same compound, the viability, T/C (second compound 0.00949 µM, first compound 1 µM) was 38.7%, the viability, T/C (second compound 0.00949 µM, first compound 3.16 µM) was 72.2% and the viability, T/C (second compound 0.00949 µM, first compound 10 µM) was 91.9%. For the same compound, the viability, T/C (second compound 0.03 µM, first compound 0.0316 µM) was 36.1%, the viability, T/C (second compound 0.03 µM, first compound 0.1 µM) was 46% and the viability, T/C (second compound 0.03 µM, first compound 0.316 µM) was 41.9%. For the same compound, the viability, T/C (second compound 0.03 µM, first compound 1 µM) was 58.2%, the viability, T/C (second compound 0.03 µM, first compound 3.16 µM) was 60.5% and the viability, T/C (second compound 0.03 µM, first compound 10 µM) was 96.2%. It also gave a viability, T/C (second compound 0.0949 µM, first compound 0.0316 µM) of 42%, a viability, T/C (second compound 0.0949 µM, first compound 0.1 µM) of 49.4% and a viability, T/C (second compound 0.0949 µM, first compound 0.316 µM) of 46.3%. It also gave a viability, T/C (second compound 0.0949 µM, first compound 1 µM) of 40.2%, a viability, T/C (second compound 0.0949 µM, first compound 3.16 µM) of 77.5% and a viability, T/C (second compound 0.0949 µM, first compound 10 µM) of 77.6%. The viability, T/C (second compound 0.3 µM, first compound 0.0316 µM) was 43.1%, the viability, T/C (second compound 0.3 µM, first compound 0.1 µM) was 54.1% and the viability, T/C (second compound 0.3 µM, first compound 0.316 µM) was 47.9%. It also gave a viability, T/C (second compound 0.3 µM, first compound 1 µM) of 56.3%, a viability, T/C (second compound 0.3 µM, first compound 3.16 µM) of 79.6% and a viability, T/C (second compound 0.3 µM, first compound 10 µM) of 100%.
`CC1(O)CCCC1n1c(=O)c(C(F)F)cc2cnc(NC3CCN(S(C)(=O)=O)CC3)nc21` (stereo unspecified) + C=CC(=O)N1CCN(c2nc(OCC3CCCN3C)nc3c(F)c(-c4nc(N)cc(C)c4C(F)(F)F)c(Cl)cc23)C(C)C1 was tested, and the IC50 (second compound 0.00316 µM) was 6.01 µM, the IC50 (second compound 0.01 µM) was 6.03 µM and the IC50 (second compound 0.0316 µM) was 5.93 µM. For the same compound, the IC50 (second compound 0.1 µM) was 6.22 µM, the IC50 (second compound 0.316 µM) was 6.21 µM and the IC50 (second compound 1 µM) was 6.48 µM. It also gave a viability, T/C (second compound 0.00316 µM, first compound 0.0316 µM) of 124%, a viability, T/C (second compound 0.00316 µM, first compound 0.1 µM) of 124% and a viability, T/C (second compound 0.00316 µM, first compound 0.316 µM) of 134%. It also gave a viability, T/C (second compound 0.00316 µM, first compound 1 µM) of 106%, a viability, T/C (second compound 0.00316 µM, first compound 3.16 µM) of 109% and a viability, T/C (second compound 0.00316 µM, first compound 10 µM) of 2.69%. The viability, T/C (second compound 0.01 µM, first compound 0.0316 µM) was 118%, the viability, T/C (second compound 0.01 µM, first compound 0.1 µM) was 113% and the viability, T/C (second compound 0.01 µM, first compound 0.316 µM) was 107%. The viability, T/C (second compound 0.01 µM, first compound 1 µM) was 122%, the viability, T/C (second compound 0.01 µM, first compound 3.16 µM) was 110% and the viability, T/C (second compound 0.01 µM, first compound 10 µM) was 2.79%. The viability, T/C (second compound 0.0316 µM, first compound 0.0316 µM) was 102%, the viability, T/C (second compound 0.0316 µM, first compound 0.1 µM) was 141% and the viability, T/C (second compound 0.0316 µM, first compound 0.316 µM) was 123%. For the same compound, the viability, T/C (second compound 0.0316 µM, first compound 1 µM) was 110%, the viability, T/C (second compound 0.0316 µM, first compound 3.16 µM) was 107% and the viability, T/C (second compound 0.0316 µM, first compound 10 µM) was 3.33%. For the same compound, the viability, T/C (second compound 0.1 µM, first compound 0.0316 µM) was 107%, the viability, T/C (second compound 0.1 µM, first compound 0.1 µM) was 117% and the viability, T/C (second compound 0.1 µM, first compound 0.316 µM) was 124%. The viability, T/C (second compound 0.1 µM, first compound 1 µM) was 118%, the viability, T/C (second compound 0.1 µM, first compound 3.16 µM) was 119% and the viability, T/C (second compound 0.1 µM, first compound 10 µM) was 2.9%. For the same compound, the viability, T/C (second compound 0.316 µM, first compound 0.0316 µM) was 108%, the viability, T/C (second compound 0.316 µM, first compound 0.1 µM) was 112% and the viability, T/C (second compound 0.316 µM, first compound 0.316 µM) was 125%. For the same compound, the viability, T/C (second compound 0.316 µM, first compound 1 µM) was 111%, the viability, T/C (second compound 0.316 µM, first compound 3.16 µM) was 128% and the viability, T/C (second compound 0.316 µM, first compound 10 µM) was 2.56%. It also gave a viability, T/C (second compound 1 µM, first compound 0.0316 µM) of 131%, a viability, T/C (second compound 1 µM, first compound 0.1 µM) of 131% and a viability, T/C (second compound 1 µM, first compound 0.316 µM) of 135%. The viability, T/C (second compound 1 µM, first compound 1 µM) was 132%, the viability, T/C (second compound 1 µM, first compound 3.16 µM) was 129% and the viability, T/C (second compound 1 µM, first compound 10 µM) was 2.51%.
